Converted amounts (≈) assume the structure as drawn.
Legend:
Plasmodium falciparum [1] = assay: Antiplasmodial activity against chloroquine-sensitive Plasmodium falciparum 3D7 infected after 72 hrs by Malaria SYBR Green I-staining based fluorescence assay; assay type: functional, organism-based; settings: 3D7, 72 h
Plasmodium falciparum [2] = assay: Antiplasmodial activity against chloroquine-resistant Plasmodium falciparum K1 infected after 72 hrs by Malaria SYBR Green I-staining based fluorescence assay; assay type: functional, organism-based; settings: K1, 72 h
[3] = Selectivity index, ratio of IC50 for african green monkey Vero cells to IC50 for chloroquine-sensitive Plasmodium falciparum 3D7; assay type: toxicity, cell-based; settings: read-out: Ratio IC50
Escherichia coli = assay: Antimicrobial activity against Escherichia coli ATCC 9637 after 24 hrs by standard broth microdilution method; assay type: functional; settings: ATCC 9637, 24 h
Pseudomonas aeruginosa = assay: Antimicrobial activity against Pseudomonas aeruginosa ATCC BAA-427 after 24 hrs by standard broth microdilution method; assay type: functional; settings: ATCC BAA-427, 24 h
Staphylococcus aureus = assay: Antimicrobial activity against Staphylococcus aureus ATCC 25923 after 24 hrs by standard broth microdilution method; assay type: functional; settings: ATCC 25923, 24 h
Klebsiella pneumoniae = assay: Antimicrobial activity against Klebsiella pneumoniae ATCC 27736 after 24 hrs by standard broth microdilution method; assay type: functional; settings: ATCC 27736, 24 h
Candida albicans = assay: Antifungal activity against Candida albicans clinical isolate after 24 to 48 hrs by standard broth microdilution method; assay type: functional
Cryptococcus neoformans = assay: Antifungal activity against Cryptococcus neoformans clinical isolate after 24 to 48 hrs by standard broth microdilution method; assay type: functional
Sporothrix schenckii = assay: Antifungal activity against Sporothrix schenckii clinical isolate after 72 to 96 hrs by standard broth microdilution method; assay type: functional
[4] = test system: Trichophyton mentagrophytes; assay: Antifungal activity against Trichophyton mentagrophytes clinical isolate after 72 to 96 hrs by standard broth microdilution method; assay type: functional
Aspergillus fumigatus = assay: Antifungal activity against Aspergillus fumigatus clinical isolate after 72 to 96 hrs by standard broth microdilution method; assay type: functional
Candida parapsilosis = assay: Antifungal activity against Candida parapsilosis ATCC […] after 72 to 96 hrs by standard broth microdilution method; assay type: functional; settings: Lodderomyces parapsilosis

Structure (SMILES) | IC50 (Plasmodium falciparum [1]) | IC50 (Plasmodium falciparum [2]) | selectivity ratio [3] | MIC (Escherichia coli) | MIC (Pseudomonas aeruginosa) | MIC (Staphylococcus aureus) | MIC (Klebsiella pneumoniae) | MIC (Candida albicans) | MIC (Cryptococcus neoformans) | MIC (Sporothrix schenckii) | MIC [4] | MIC (Aspergillus fumigatus) | MIC (Candida parapsilosis)
Clc1cccc(/N=C(\NCCNc2ccnc3cc(Cl)ccc23)Nc2ccccc2Oc2cc(Cl)ccc2Cl)c1 | 0.0696 µM | 0.422 µM | 56.2 | 6.25 mg/L (≈ 10.2 µM) | > 50 mg/L | 1.56 mg/L (≈ 2.55 µM) | > 50 mg/L | 50 mg/L (≈ 81.8 µM) | > 50 mg/L | 50 mg/L (≈ 81.8 µM) | 50 mg/L (≈ 81.8 µM) | > 50 mg/L | 50 mg/L (≈ 81.8 µM)
COC(=O)/C(C)=C/c1ccc(Oc2ccc(N/C(=N/c3ccccc3)NCCCCNc3ccnc4cc(Cl)ccc34)cc2)cc1 | 0.0944 µM | 0.0767 µM | 91.8 | 25 mg/L (≈ 39.4 µM) | > 50 mg/L | 50 mg/L (≈ 78.8 µM) | 50 mg/L (≈ 78.8 µM) | 25 mg/L (≈ 39.4 µM) | 25 mg/L (≈ 39.4 µM) | 25 mg/L (≈ 39.4 µM) | 25 mg/L (≈ 39.4 µM) | > 50 mg/L | 25 mg/L (≈ 39.4 µM)
Clc1cccc(/N=C(\NCCCCNc2ccnc3cc(Cl)ccc23)Nc2ccccc2Oc2cc(Cl)ccc2Cl)c1 | 0.149 µM | 0.432 µM | 7.7 | 12.5 mg/L (≈ 19.5 µM) | 50 mg/L (≈ 78.2 µM) | 1.56 mg/L (≈ 2.44 µM) | 12.5 mg/L (≈ 19.5 µM) | 25 mg/L (≈ 39.1 µM) | 50 mg/L (≈ 78.2 µM) | 25 mg/L (≈ 39.1 µM) | 25 mg/L (≈ 39.1 µM) | 50 mg/L (≈ 78.2 µM) | 25 mg/L (≈ 39.1 µM)
COC(=O)/C(C)=C/c1ccc(Oc2ccccc2N/C(=N/c2ccc(Cl)cc2)NCCCNc2ccnc3cc(Cl)ccc23)cc1 | 0.0745 µM | 0.263 µM | 32.7 | 12.5 mg/L (≈ 19.1 µM) | > 50 mg/L | 1.56 mg/L (≈ 2.38 µM) | > 50 mg/L | 50 mg/L (≈ 76.4 µM) | 50 mg/L (≈ 76.4 µM) | 25 mg/L (≈ 38.2 µM) | 25 mg/L (≈ 38.2 µM) | > 50 mg/L | > 50 mg/L
COC(=O)/C(C)=C/c1ccc(Oc2ccc(N/C(=N/c3ccc(Cl)cc3)NCCCCNc3ccnc4cc(Cl)ccc34)cc2)cc1 | 0.0564 µM | 0.716 µM | 145 | 25 mg/L (≈ 37.4 µM) | > 50 mg/L | 12.5 mg/L (≈ 18.7 µM) | 50 mg/L (≈ 74.8 µM) | 6.25 mg/L (≈ 9.35 µM) | 6.25 mg/L (≈ 9.35 µM) | 6.25 mg/L (≈ 9.35 µM) | 12.5 mg/L (≈ 18.7 µM) | 50 mg/L (≈ 74.8 µM) | 12.5 mg/L (≈ 18.7 µM)
COC(=O)/C(C)=C/c1ccc(Oc2ccccc2N/C(=N/c2cccc(Cl)c2)NCCNc2ccnc3cc(Cl)ccc23)cc1 | 0.0349 µM | 0.489 µM | 234 | 50 mg/L (≈ 78.1 µM) | > 50 mg/L | 3.12 mg/L (≈ 4.87 µM) | 3.12 mg/L (≈ 4.87 µM) | 25 mg/L (≈ 39 µM) | 25 mg/L (≈ 39 µM) | 25 mg/L (≈ 39 µM) | 25 mg/L (≈ 39 µM) | 50 mg/L (≈ 78.1 µM) | 25 mg/L (≈ 39 µM)
COc1ccc(Oc2ccc(N/C(=N/c3ccc(Cl)cc3)NCCCNc3ccnc4cc(Cl)ccc34)cc2)cc1 | 0.204 µM | > 0.8 µM | 82.1 | 12.5 mg/L (≈ 21.3 µM) | > 50 mg/L | 12.5 mg/L (≈ 21.3 µM) | 50 mg/L (≈ 85.2 µM) | 50 mg/L (≈ 85.2 µM) | 50 mg/L (≈ 85.2 µM) | 25 mg/L (≈ 42.6 µM) | 25 mg/L (≈ 42.6 µM) | 50 mg/L (≈ 85.2 µM) | 25 mg/L (≈ 42.6 µM)
COc1ccc(Oc2ccc(N/C(=N/c3cccc(Cl)c3)NCCCCNc3ccnc4cc(Cl)ccc34)cc2)cc1 | 0.0757 µM | 0.147 µM | 61.2 | 25 mg/L (≈ 41.6 µM) | > 50 mg/L | 6.25 mg/L (≈ 10.4 µM) | 25 mg/L (≈ 41.6 µM) | 6.25 mg/L (≈ 10.4 µM) | 12.5 mg/L (≈ 20.8 µM) | 6.25 mg/L (≈ 10.4 µM) | 6.25 mg/L (≈ 10.4 µM) | 25 mg/L (≈ 41.6 µM) | 6.25 mg/L (≈ 10.4 µM)
COc1ccc(Oc2ccc(N/C(=N/c3ccccc3)NCCCNc3ccnc4cc(Cl)ccc34)cc2)cc1 | 0.0366 µM | 0.68 µM | 97.8 | 6.25 mg/L (≈ 11.3 µM) | > 50 mg/L | 6.25 mg/L (≈ 11.3 µM) | 12.5 mg/L (≈ 22.6 µM) | 25 mg/L (≈ 45.3 µM) | 25 mg/L (≈ 45.3 µM) | 12.5 mg/L (≈ 22.6 µM) | 12.5 mg/L (≈ 22.6 µM) | 25 mg/L (≈ 45.3 µM) | 12.5 mg/L (≈ 22.6 µM)
Clc1ccc(/N=C(\NCCNc2ccnc3cc(Cl)ccc23)Nc2ccc(Oc3cc(Cl)ccc3Cl)cc2)cc1 | 0.044 µM | 0.0541 µM | 189 | 6.25 mg/L (≈ 10.2 µM) | > 50 mg/L | 25 mg/L (≈ 40.9 µM) | > 50 mg/L | 6.25 mg/L (≈ 10.2 µM) | 6.25 mg/L (≈ 10.2 µM) | 3.12 mg/L (≈ 5.1 µM) | 6.25 mg/L (≈ 10.2 µM) | 6.25 mg/L (≈ 10.2 µM) | 12.5 mg/L (≈ 20.4 µM)
Clc1ccc(Cl)c(Oc2ccc(N/C(=N/c3ccccc3)NCCCCNc3ccnc4cc(Cl)ccc34)cc2)c1 | 0.307 µM | > 0.826 µM | 29.9 | 12.5 mg/L (≈ 20.7 µM) | > 50 mg/L | 12.5 mg/L (≈ 20.7 µM) | 25 mg/L (≈ 41.3 µM) | 12.5 mg/L (≈ 20.7 µM) | 25 mg/L (≈ 41.3 µM) | 25 mg/L (≈ 41.3 µM) | 25 mg/L (≈ 41.3 µM) | 25 mg/L (≈ 41.3 µM) | 12.5 mg/L (≈ 20.7 µM)
Clc1cccc(/N=C(\NCCCNc2ccnc3cc(Cl)ccc23)Nc2ccc(Oc3cc(Cl)ccc3Cl)cc2)c1 | 0.0762 µM | > 0.8 µM | 44.5 | 6.25 mg/L (≈ 9.99 µM) | > 50 mg/L | 12.5 mg/L (≈ 20 µM) | > 50 mg/L | 3.12 mg/L (≈ 4.99 µM) | 6.25 mg/L (≈ 9.99 µM) | 3.12 mg/L (≈ 4.99 µM) | 6.25 mg/L (≈ 9.99 µM) | 12.5 mg/L (≈ 20 µM) | 25 mg/L (≈ 40 µM)
COC(=O)/C(C)=C/c1ccc(Oc2ccc(N/C(=N/c3ccc(Cl)cc3)NCCCNc3ccnc4cc(Cl)ccc34)cc2)cc1 | 0.0385 µM | 0.198 µM | 100 | 12.5 mg/L (≈ 19.1 µM) | > 50 mg/L | 12.5 mg/L (≈ 19.1 µM) | 50 mg/L (≈ 76.4 µM) | 12.5 mg/L (≈ 19.1 µM) | 12.5 mg/L (≈ 19.1 µM) | 6.25 mg/L (≈ 9.55 µM) | 12.5 mg/L (≈ 19.1 µM) | 50 mg/L (≈ 76.4 µM) | 12.5 mg/L (≈ 19.1 µM)
COc1ccc(Oc2ccccc2N/C(=N/c2cccc(Cl)c2)NCCCCNc2ccnc3cc(Cl)ccc23)cc1 | 0.0376 µM | > 1 µM | 176 | 12.5 mg/L (≈ 20.8 µM) | > 50 mg/L | 3.12 mg/L (≈ 5.2 µM) | 50 mg/L (≈ 83.3 µM) | 12.5 mg/L (≈ 20.8 µM) | 50 mg/L (≈ 83.3 µM) | 12.5 mg/L (≈ 20.8 µM) | 12.5 mg/L (≈ 20.8 µM) | > 50 mg/L | 50 mg/L (≈ 83.3 µM)
COc1ccc(Oc2ccc(N/C(=N/c3ccc(Cl)cc3)NCCNc3ccnc4cc(Cl)ccc34)cc2)cc1 | 0.069 µM | 0.105 µM | 122 | 6.25 mg/L (≈ 10.9 µM) | > 50 mg/L | 6.25 mg/L (≈ 10.9 µM) | 12.5 mg/L (≈ 21.8 µM) | 12.5 mg/L (≈ 21.8 µM) | 25 mg/L (≈ 43.7 µM) | 6.25 mg/L (≈ 10.9 µM) | 12.5 mg/L (≈ 21.8 µM) | 25 mg/L (≈ 43.7 µM) | 12.5 mg/L (≈ 21.8 µM)
